This note sets out measurements from PMC3891821, “Discovery of Bile Salt Hydrolase Inhibitors Using an Efficient High-Throughput Screening System” (PLoS ONE, 2014).

Counter-ions that a name gives are not always drawn.

For the first assay, the target named is T1, rBSH (recombinant bile salt hydrolase) (Ligilactobacillus salivarius, UniProt J7H3P9).
T1 construct: His-tagged full-length BSH, E. coli host, Ni-NTA purified
T1 sequence (J7H3P9 2-324): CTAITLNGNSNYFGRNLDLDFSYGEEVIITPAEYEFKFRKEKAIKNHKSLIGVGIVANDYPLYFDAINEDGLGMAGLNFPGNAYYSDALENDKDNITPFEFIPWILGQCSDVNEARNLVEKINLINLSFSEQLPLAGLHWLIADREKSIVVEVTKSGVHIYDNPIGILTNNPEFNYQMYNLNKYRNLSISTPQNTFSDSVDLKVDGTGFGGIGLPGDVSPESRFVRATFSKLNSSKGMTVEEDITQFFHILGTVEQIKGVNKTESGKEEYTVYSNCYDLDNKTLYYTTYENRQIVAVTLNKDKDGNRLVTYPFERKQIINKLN
Briefly: microplate precipitation assay, A600. To be noted: pH 6.0, 37 C, DTT. The format is biochemical.
Take `C[C@H](CCC(=O)NCCS(=O)(=O)O)[C@H]1CC[C@H]2[C@@H]3CC[C@@H]4C[C@H](O)CC[C@]4(C)[C@H]3C[C@H](O)[C@]12C` [taurodeoxycholic acid]: the “microplate precipitation assay, A600” value is reported as “taurodeoxycholic acid was better than other tested conjugated bile salts”.

The target of another assay is T1, rBSH (recombinant bile salt hydrolase). Nature of the assay: two-step assay, amino acid release. The format is biochemical. As to conditions: 37 C.
As for `C[C@H](CCC(=O)NCC(=O)O)[C@H]1CC[C@H]2[C@@H]3[C@H](O)C[C@@H]4C[C@H](O)CC[C@]4(C)[C@H]3C[C@H](O)[C@]12C` [sodium glycocholate], the “two-step assay, amino acid release” value is recorded as “ascertain the amount of liberated amino acids from sodium glycocholate”.

Another assay has the same target. Nature of the assay: two-step BSH assay, amino acid released from glycocholate. The class given is biochemical.
Details: not given
The source says: two-step BSH assay, amino acid released from glycocholate on rBSH (recombinant bile salt hydrolase)
As usually defined, the inhibition is the percentage by which the read-out fell short of the control. With `C[C@H]1c2cccc(O)c2C(O)=C2C(=O)[C@]3(O)C(O)=C(C(N)=O)C(=O)[C@@H](N(C)C)[C@@H]3[C@@H](O)[C@@H]21` [Doxycycline Hydrochloride], the inhibition at 5000 µM was 92.9%.

On to `CCC[C@@H]1C[C@@H](C(=O)N[C@@H]([C@H]2O[C@H](SC)[C@H](O)[C@@H](O)[C@H]2O)[C@@H](C)O)N(C)C1` [Lincomycin], for which the inhibition at 5000 µM was 67.3%.

With `CC1=CC(=O)c2ccccc2C1=O` [Menadione], the inhibition at 5000 µM was determined as 87.2%.

Regarding `CN(C)[C@@H]1C(O)=C(C(N)=O)C(=O)[C@@]2(O)C(O)=C3C(=O)c4c(O)ccc(Cl)c4[C@@H](O)[C@H]3C[C@@H]12` [Demeclocycline Hydrochloride], the inhibition at 5000 µM turned out to be 92%.

With `O=C(/C=C/c1ccc(O)c(O)c1)OCCc1ccccc1` [Caffeic Acid Phenethyl Ester], the inhibition at 5000 µM stood at 99.7%.

For the compound `Cc1onc(-c2ccccc2Cl)c1C(=O)N[C@@H]1C(=O)N2[C@@H]1SC(C)(C)[C@@H]2C(=O)O` [Cloxacillin], the inhibition at 5000 µM was 61.2%.

Take `CC[C@H]1OC(=O)C[C@@H](O)[C@H](C)[C@@H](O[C@@H]2O[C@H](C)[C@@H](O[C@H]3C[C@@](C)(O)[C@@H](O)[C@H](C)O3)[C@H](N(C)C)[C@H]2O)[C@@H](CC=O)C[C@@H](C)C(=O)/C=C/C(C)=C/[C@@H]1CO[C@@H]1O[C@H](C)[C@@H](O)[C@@H](OC)[C@H]1OC` [Tylosin]: the inhibition at 5000 µM came out at 23.8%.

With `O=C(O[C@@H]1Cc2c(O)cc(O)cc2O[C@@H]1c1ccc(O)c(O)c1)c1cc(O)c(O)c(O)c1` [Epicatechin monogallate], the inhibition at 5000 µM worked out at 98.6%.

On to `CN(C)[C@@H]1C(=O)C(C(N)=O)=C(O)[C@@]2(O)C(=O)C3=C(O)c4c(O)cccc4[C@@](C)(O)[C@H]3[C@H](O)[C@@H]12` [Oxytetracycline], for which the inhibition at 5000 µM came out at 97.4%.

Regarding `CC1=C(C(=O)O)N2C(=O)[C@@H](NC(=O)[C@H](N)C3=CCC=CC3)[C@H]2SC1` [Cephradine], the inhibition at 5000 µM stood at 61.8%.

As for `C=C1c2cccc(O)c2C(=O)C2=C(O)[C@]3(O)C(=O)C(C(N)=O)=C(O)[C@@H](N(C)C)[C@@H]3[C@@H](O)[C@H]12` [Methacycline Hydrochloride], the inhibition at 5000 µM was determined as 90.2%.

As for `O=c1c(O)c(-c2ccc(O)c(O)c2)oc2c(O)c(O)cc(O)c12` [Gossypetin], the inhibition at 5000 µM came to 97.3%.

Take `Cc1cc2nc3c(=O)[nH]c(=O)nc-3n(C[C@H](O)[C@H](O)[C@H](O)CO)c2cc1C` [Riboflavin]: the inhibition at 1000 µM was 99.3%.

Turning to `CC[C@H]1OC(=O)[C@H](C)[C@@H](O[C@H]2C[C@@](C)(OC)[C@@H](O)[C@H](C)O2)[C@H](C)[C@@H](O[C@@H]2O[C@H](C)C[C@H](N(C)C)[C@H]2O)[C@](C)(O)C[C@@H](C)C(=O)[C@H](C)[C@@H](O)[C@]1(C)O` [Erythromycin], the inhibition at 5000 µM came to 36.5%.

On to `O=c1c(O)cccc2cc(O)c(O)c(O)c12` [Purpurogallin], for which the inhibition at 5000 µM was 83%.

As for `CC(C)c1cc2c(c(O)c1O)[C@@]1(C(=O)O)CCCC(C)(C)[C@@H]1CC2` [Carnosic Acid], the inhibition at 5000 µM was found to be 96.8%.

`Cc1cc(C)nc(NS(=O)(=O)c2ccc(N)cc2)n1` [Sulfamethazine]: the inhibition at 5000 µM was 48.7%.

The assay is the same for the next values; noted with them: 5000 µM; sodium glycocholate; 30 min preincubation, 37 C.
By % Inhibition is commonly meant the share of the control response that was lost under treatment. Consider `O=[N+]([O-])c1cc([As](=O)(O)O)ccc1O` [Roxarsone], for which the “% Inhibition” value worked out at 98.4%.
